Where “and” joins values, the source holds several entries; their conditions need not be identical. Equal values may be shown once.
Columns and labels:
adult rat DRG neurons = assay: Neurite outgrowth in dissociated adult rat dorsal root ganglion cultures; format: cell-based; details: 72h; BYL719 500 nM with 1938 above 10^-7 M
Source text: Dissociated adult rat dorsal root ganglion (DRG) cultures were used as an in vitro model for neuroregeneration[80],[81]. DRG neurons were isolated from adult male (>250g) Wistar rats as described, with DRGs from each rat cultured separately. Following culling via schedule 1 (rising concentration of CO2), the spinal column was removed and stored in PBS on ice. Cord tissue was removed to expose the DRGs and roots in the intervertebral foramen and the DRGs removed with forceps and scalpel under a dissecting microscope (Olympus SZ40). DRGs were manually cleaned by removal of roots, capsule and capillaries with forceps and then placed in DMEM supplemented with P/S. DRGs were treated with 0.125% collagenase type IV solution at 37°C for 90 min, and then mechanically dissociated by trituration using a 1 ml pipette. The collagenase solution was removed by 2 rounds of centrifugation in complete DMEM (DMEM with 1% P/S and 10% FBS) at 400 xg for 5 min, followed by resuspension of the DRG cell pellet in complete DMEM supplemented with 0.01 mM cytosine arabinoside. DRGs were plated in 75-cm[2] flasks coated with 0.1 mg/ml poly-D-lysine and incubated at 37°C, 5% CO2. […] 9 fields per well were captured and analysed using the CSIRO Neurite Analysis 2 […] in Columbus analysis software (Perkin Elmer). […]

mouse heart = assay: In vivo model of ischaemia reperfusion injury in mice; details: 10 mg/kg 1938 i.v., heart after 15 min; single mice

CCN1CCN(c2ccc(Nc3cc(Nc4cccc5c4N(C(C)=O)CC5)ccn3)cc2)CC1 [Compound 1938]
neurite outgrowth (total length of neurites) (adult rat DRG neurons): doubling the total length of neurites
Western blot pAkt in vivo: pAkt/tAkt (mouse heart): 7.58 and 5.35 and 5.18

Reference: publication PMC7614683, “A small molecule PI3Kα activator for cardioprotection and neuroregeneration” (Nature, 2023)
